Tested on: 817829-284-R-J1-PDC complex spheroid viability
Assay: Anticancer human tumor 817829-284-R-J1-PDC patient-derived colon adenocarcinoma cell line growth inhibition [POLQ]
Conditions: for IC50: curve of first compound; for viability, T/C: stronger effect = lower value
Experimental: Multicellular complex tumor spheroid response to Polymerase (POL) inhibitors (novobiocin, ART-558, RP6685) in combination with a variety of drugs and investigational agents in selected tumor cell lines
The POL inhibitors (novobiocin, ART-558, and RP6685) were evaluated both individually and in combination with standard of care and investigational anticancer small molecules within a complex spheroid model of solid tumors. . Complex spheroids include a stromal component modeled by human endothelial cells (HUVEC) and fibroblasts modeled by human mesenchymal stem cells (MSCs). The concentration ranges selected for each drug and investigational agent were based upon clinically achievable concentrations if the clinical Cmax of the agent was known.
Compounds. The drugs and investigational agents: novobiocin (NSC847541), ART-558 (NSC835418), RP-6685 (NSC848927), peposertib (NSC802822), ceralasertib (NSC780249), elimusertib (NSC800525), camonsertib (NSC841442), AZD-1390 (NSC803789), olaparib (NSC753686), talazoparib (NSC767125), rucaparib (NSC756644), sotorasib (NSC818433), MRTX-1133 (NSC836407), SN-38 (NSC673596), topotecan (NSC609699), epotoside (NSC141540), doxorubicin (NSC123127), gemcitabine (NSC613327), 5-fluorouracil (NSC19893), paclitaxel (NSC125973), vemurafenib (NSC761431), MSA-2 (NSC828583), SN-011 (NSC837082), adavosertib (NSC754352), prexasertib (NSC758257), carboplatin (NSC241240) and oxaliplatin (NSC266046), were obtained from the National Cancer Institute (NCI) Developmental Therapeutics Program Chemical Repository (21). The FDA-approved anticancer drug set is available from the Developmental Therapeutics Program at https://dtp.cancer.gov/organization/dscb/obtaining/. […] The stock solutions were prepared in dimethyl sulfoxide (DMSO, Sigma-Aldrich, St. Louis, MO, cat. D2650), except for the platinum compounds which were prepared in saline (Quality Biological, Gaithersburg, MD, cat. 114-055-101), at 800-fold the tested concentration and stored at -70 degrees C prior to their use. All drugs and investigational agents were tested over a range starting from a high concentration at or near the clinical Cmax and decreasing in half-log increments. If the clinical Cmax for an agent had not been determined, the highest concentration tested was 10 microM, except for SN-38, which was tested at a high concentration of 1 microM.
Cell Culture. All cells were maintained in an incubator at 37 degrees C and 5% CO2 with 95% humidity. The PDC lines were cultured according to standard operating procedures established by the NCI PDMR (https://pdmr.cancer.gov). Table 3 of the manuscript, lists the cell lines along with the number of the three cell types plated to form the mct-spheroids and media for tumor cell growth. After thawing, all PDC lines, except 997537-175-T-J1-PDC and 415267-285-R-J2-PDC, were cultured in Matrigel-coated flasks prepared with a working solution of 1X Ham's F-12 nutrient mix, without supplementation (Thermo Fisher Scientific, cat. 11765054), 100 U/mL penicillin-streptomycin (Thermo Fisher Scientific, cat. 15140122), and 2.5% Matrigel (Corning Inc., Corning, NY, cat. 354248) for the first three passages. The two PDC lines 997537-175-T-J1-PDC and 415267-285-R-J2-PDC were cultured on uncoated flasks. The 857933-349-R-J2-PDC line was cultured in 6C/Colon 1B media containing advanced DMEM/F-12 (Thermo Fisher Scientific, cat. 12634028), 10 mM HEPES (Thermo Fisher Scientific, cat. 15630080), 1X GlutaMAX supplement (Thermo Fisher Scientific, cat. 35050061), 0.1 mg/mL primocin (InvivoGen, San Diego, CA, cat. ant-pm-2), 10% defined fetal bovine serum, heat inactivated (HyClone Laboratories Inc., Logan, UT, cat. SH30070.03HI), 50% L-WRN conditioned media (ATCC, cat. CRL-3276), 1.25 mM N-Acetyl-L-cysteine (Sigma-Aldrich, cat. A9165), 10 mM nicotinamide (Sigma-Aldrich, cat. N0636), 1X B-27 supplement (Thermo Fisher Scientific, cat. 17504044), 1X N-2 supplement (Thermo Fisher Scientific, cat. […]

[1] = second compound 0.0316 µM, first compound 0.0316 µM
[2] = second compound 0.0316 µM, first compound 0.1 µM
[3] = second compound 0.0316 µM, first compound 0.316 µM
[4] = second compound 0.0316 µM, first compound 1 µM
[5] = second compound 0.0316 µM, first compound 3.16 µM
[6] = second compound 0.0316 µM, first compound 10 µM
[7] = second compound 0.1 µM, first compound 0.0316 µM
[8] = second compound 0.1 µM, first compound 0.1 µM
[9] = second compound 0.1 µM, first compound 0.316 µM
[10] = second compound 0.1 µM, first compound 1 µM
[11] = second compound 0.1 µM, first compound 3.16 µM
[12] = second compound 0.1 µM, first compound 10 µM
[13] = second compound 0.316 µM, first compound 0.0316 µM
[14] = second compound 0.316 µM, first compound 0.1 µM
[15] = second compound 0.316 µM, first compound 0.316 µM
[16] = second compound 0.316 µM, first compound 1 µM
[17] = second compound 0.316 µM, first compound 3.16 µM
[18] = second compound 0.316 µM, first compound 10 µM
[19] = second compound 1 µM, first compound 0.0316 µM
[20] = second compound 1 µM, first compound 0.1 µM
[21] = second compound 1 µM, first compound 0.316 µM
[22] = second compound 1 µM, first compound 1 µM
[23] = second compound 1 µM, first compound 3.16 µM
[24] = second compound 1 µM, first compound 10 µM
[25] = second compound 3.16 µM, first compound 0.0316 µM
[26] = second compound 3.16 µM, first compound 0.1 µM
[27] = second compound 3.16 µM, first compound 0.316 µM
[28] = second compound 3.16 µM, first compound 1 µM
[29] = second compound 3.16 µM, first compound 3.16 µM
[30] = second compound 3.16 µM, first compound 10 µM
[31] = second compound 10 µM, first compound 0.0316 µM
[32] = second compound 10 µM, first compound 0.1 µM
[33] = second compound 10 µM, first compound 0.316 µM
[34] = second compound 10 µM, first compound 1 µM
[35] = second compound 10 µM, first compound 3.16 µM
[36] = second compound 10 µM, first compound 10 µM
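Further: spheroids exposed to compounds for 7 days.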
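Wherever viability, T/C is given: 100% = DMSO vehicle-treated spheroids.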

With C#Cc1c(F)ccc2cc(O)cc(-c3ncc4c(N5CC6CCC(C5)N6)nc(OCC56CCCN5CC(F)C6)nc4c3F)c12 (centres undefined) + Cc1cccc(N(C)C(=O)C2C(O)CCN2c2nc(C)cc(C(F)(F)F)c2C#N)c1 the IC50 (second compound 0.0316 µM) was > 10 µM, the IC50 (second compound 0.1 µM) was > 10 µM and the IC50 (second compound 0.316 µM) was > 10 µM. For the same compound, the IC50 (second compound 1 µM) was 7.2 µM, the IC50 (second compound 3.16 µM) was > 10 µM and the IC50 (second compound 10 µM) was 8.06 µM. It also gave a viability, T/C [1] of 104%, a viability, T/C [2] of 112% and a viability, T/C [3] of 85.5%. The viability, T/C [4] was 85.9%, the viability, T/C [5] was 112% and the viability, T/C [6] was 60.9%. For the same compound, the viability, T/C [7] was 93%, the viability, T/C [8] was 75.6% and the viability, T/C [9] was 88%. It also gave a viability, T/C [10] of 95.1%, a viability, T/C [11] of 136% and a viability, T/C [12] of 76%. For the same compound, the viability, T/C [13] was 62.5%, the viability, T/C [14] was 75.8% and the viability, T/C [15] was 95%. For the same compound, the viability, T/C [16] was 97.9%, the viability, T/C [17] was 79.7% and the viability, T/C [18] was 63.5%. The viability, T/C [19] was 94.7%, the viability, T/C [20] was 86.9% and the viability, T/C [21] was 93%. The viability, T/C [22] was 118%, the viability, T/C [23] was 97% and the viability, T/C [24] was 31.2%. For the same compound, the viability, T/C [25] was 108%, the viability, T/C [26] was 82.3% and the viability, T/C [27] was 86.1%. It also gave a viability, T/C [28] of 87%, a viability, T/C [29] of 97.3% and a viability, T/C [30] of 89.4%. It also gave a viability, T/C [31] of 99.7%, a viability, T/C [32] of 108% and a viability, T/C [33] of 90.2%. For the same compound, the viability, T/C [34] was 96.4%, the viability, T/C [35] was 89.3% and the viability, T/C [36] was 40.7%.

With COc1cc2cc(C(=O)CCC(=O)O)sc2cc1OC + Cc1cccc(N(C)C(=O)C2C(O)CCN2c2nc(C)cc(C(F)(F)F)c2C#N)c1 the IC50 (second compound 0.0316 µM) was > 10 µM, the IC50 (second compound 0.1 µM) was > 10 µM and the IC50 (second compound 0.316 µM) was > 10 µM. The IC50 (second compound 1 µM) was > 10 µM, the IC50 (second compound 3.16 µM) was > 10 µM and the IC50 (second compound 10 µM) was > 10 µM. For the same compound, the viability, T/C [1] was 100%, the viability, T/C [2] was 93.1% and the viability, T/C [3] was 89%. It also gave a viability, T/C [4] of 88.5%, a viability, T/C [5] of 114% and a viability, T/C [6] of 96.2%. It also gave a viability, T/C [7] of 113%, a viability, T/C [8] of 97% and a viability, T/C [9] of 99.5%. The viability, T/C [10] was 105%, the viability, T/C [11] was 98.7% and the viability, T/C [12] was 102%. The viability, T/C [13] was 101%, the viability, T/C [14] was 90.5% and the viability, T/C [15] was 99%. It also gave a viability, T/C [16] of 108%, a viability, T/C [17] of 107% and a viability, T/C [18] of 108%. For the same compound, the viability, T/C [19] was 102%, the viability, T/C [20] was 88.2% and the viability, T/C [21] was 96.7%. The viability, T/C [22] was 116%, the viability, T/C [23] was 105% and the viability, T/C [24] was 104%. It also gave a viability, T/C [25] of 91.1%, a viability, T/C [26] of 111% and a viability, T/C [27] of 117%. For the same compound, the viability, T/C [28] was 93.8%, the viability, T/C [29] was 100% and the viability, T/C [30] was 96.9%. It also gave a viability, T/C [31] of 87.7%, a viability, T/C [32] of 86.8% and a viability, T/C [33] of 112%. It also gave a viability, T/C [34] of 89.6%, a viability, T/C [35] of 109% and a viability, T/C [36] of 89.6%.

Reference: PubChem BioAssay AID1963839 (Molecular Pharmacology Branch, DTP, NCI, 2024)
